Several values for one entry are separate records, joined by “and”; a condition that tells them apart may be missing. Identical values can stand only once.
How the values were obtained:
Format in all cases: cell-based
Pseudomonas aeruginosa = assay: preservative efficacy test of inoculated m-cresol test solutions; set-up: unit not given beside the values; details: 1.8 mg/ml m-cresol
Protocol: (§1) In a first experiment, the minimum m-cresol concentration necessary to ensure microbiological integrity was determined.
(§2) Test solutions with m-cresol concentrations of between 2.7 mg/ml down to 1.5 mg/ml were inoculated with an inoculum of different bacteria and fungi/yeast and stored for 28 days. During the test, the bacteria and fungi/yeast population of the test solutions were repeatedly analyzed.

bacteria and fungi/yeast = assay: comparison of test solution results to Ph. Eur. and USP criteria
Protocol: The Ph. Eur. and USP criteria are given in table 1, wherein the numbers designate the required order of magnitude in CFU (colony forming unit) decrease as a function of time since the time of contamination (T0).
as §2
The analysis presented in table 2 for the 1.8 mg/ml m-cresol test solution was also performed for the test solutions with different m-cresol contents. The results were then compared to the Ph.Eur. and USP criteria to determine, which m-cresol contents are sufficient to fulfil these criteria.

Escherichia coli = assay: preservative efficacy test of inoculated m-cresol test solutions; details: 1.8 mg/ml m-cresol
Protocol: as §1, §2

Aspergillus niger = assay: as above; details: 1.8 mg/ml m-cresol
Protocol: as §1, §2

Staphilococcus aureus = assay: as above; details: 1.8 mg/ml m-cresol
Protocol: as §1, §2

Candida albicans = assay: as above; details: 1.8 mg/ml m-cresol
Protocol: as §1, §2

Q: Which Pseudomonas aeruginosa content (Pseudomonas aeruginosa; 6 h) does the source give for `Cc1cccc(O)c1` [m-cresol] here?
A: <10

Q: And the Pseudomonas aeruginosa content (Pseudomonas aeruginosa; 24 h)?
A: <10

Q: What about the Pseudomonas aeruginosa content (Pseudomonas aeruginosa; 7 d) of the same compound?
A: <10

Q: What about the Pseudomonas aeruginosa content (Pseudomonas aeruginosa; 14 d) of the same compound?
A: <10

Q: And the Pseudomonas aeruginosa content (Pseudomonas aeruginosa; 28 d)?
A: <10

Q: And the Pseudomonas aeruginosa content (Pseudomonas aeruginosa; Start (T0))?
A: 23000

Q: And the “m-cresol content still enough to fulfil both the Ph.Eur. criterion A and the USP criteria” value (bacteria and fungi/yeast; conclusion of first experiment)?
A: 2.1 mg/mL and 1.8 mg/mL

Q: What about the “m-cresol content down to which the USP criteria are fulfilled” value (bacteria and fungi/yeast; lowest content tested 1.5 mg/ml) of the same compound?
A: 1.5 mg/mL

Q: What about the Escherichia coli content (Escherichia coli; 6 h) of the same compound?
A: 55

Q: What about the Escherichia coli content (Escherichia coli; 24 h) of the same compound?
A: <10

Q: And the Escherichia coli content (Escherichia coli; 7 d)?
A: <10

Q: And the Escherichia coli content (Escherichia coli; 14 d)?
A: <10

Q: What about the Escherichia coli content (Escherichia coli; 28 d) of the same compound?
A: <10

Q: And the Escherichia coli content (Escherichia coli; Start (T0))?
A: 190000

Q: And the Aspergillus niger content (Aspergillus niger; 7 d)?
A: 15

Q: What about the Aspergillus niger content (Aspergillus niger; 14 d) of the same compound?
A: <10

Q: What about the Aspergillus niger content (Aspergillus niger; 28 d) of the same compound?
A: <10

Q: What about the Aspergillus niger content (Aspergillus niger; Start (T0)) of the same compound?
A: 250000

Q: And the Staphilococcus aureus content (Staphilococcus aureus; 6 h)?
A: 2200

Q: What about the Staphilococcus aureus content (Staphilococcus aureus; 24 h) of the same compound?
A: <10

Q: What about the Staphilococcus aureus content (Staphilococcus aureus; 7 d) of the same compound?
A: <10

Q: What about the Staphilococcus aureus content (Staphilococcus aureus; 14 d) of the same compound?
A: <10

Q: What about the Staphilococcus aureus content (Staphilococcus aureus; 28 d) of the same compound?
A: <10

Q: What about the Staphilococcus aureus content (Staphilococcus aureus; Start (T0)) of the same compound?
A: 170000

Q: And the Candida albicans content (Candida albicans; 7 d)?
A: 100

Q: And the Candida albicans content (Candida albicans; 14 d)?
A: 30

Q: And the Candida albicans content (Candida albicans; 28 d)?
A: <10

Q: And the Candida albicans content (Candida albicans; Start (T0))?
A: 400000
